Measurements reported in PubChem BioAssay AID365 (MTDP, 2006).
The source made the active and inactive calls. No rule for the calls is given here.

Target: Ribonuclease HI (Escherichia coli (strain K12)) (UniProt P0A7Y4)
Assay: inhibition of bacterial ribonuclease H activity – biochemical, FRET RNA/DNA duplex cleavage, dose response (AID 365)
Conditions: E. coli RNase H, FRET RNA/DNA cleavage fluorescence

Chain of Ribonuclease HI (Escherichia coli (strain K12)) (P0A7Y4 whole entry, looked up): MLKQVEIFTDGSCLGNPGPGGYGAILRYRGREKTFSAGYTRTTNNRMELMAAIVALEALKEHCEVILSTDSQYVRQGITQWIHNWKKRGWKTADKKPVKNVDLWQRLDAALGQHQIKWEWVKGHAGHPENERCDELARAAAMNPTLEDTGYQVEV

| SMILES | IC50 |
| --- | --- |
| O=c1c(O)c(-c2cc(O)c(O)c(O)c2)oc2cc(O)cc(O)c12 | inactive |
| Oc1cc(CN2COc3ccccc32)c(O)cc1CNC1CCCCC1 | > 100 µM (inactive) |
| O=C1NC(=S)N(c2ccccc2F)C(=O)/C1=C/c1ccc(I)o1 | 7.3 µM |
| CC1=C(CCC(=O)O)c2cc3nc(cc4[nH]c(cc5[nH]c(cc1n2)c(C)c5C(C)O)c(C)c4C(C)O)C(C)=C3CCC(=O)O (centres undefined) | > 100 µM (inactive) |
| Cc1ccc(-c2cc(C(=O)Nc3sc(C(=O)OC(C)C)c(C)c3C(N)=O)c3ccccc3n2)s1 | 1.8 µM |
| O=[N+]([O-])c1cc(Cc2cc([N+](=O)[O-])c3cccnc3c2O)c(O)c2ncccc12 | inactive |
| CN(C)S(=O)(=O)c1ccc(Nc2ccc(O)c3c2C(=O)c2c([N+](=O)[O-])ccc(O)c2C3=O)cc1 | 8 µM |
| Cc1cc(=O)c2c(O)c3c(O)cc(O)c4c5c(O)cc(O)c6c(O)c7c(=O)cc(C)c8c1c2c(c34)c(c65)c78 | inactive |
| O=C1c2ccccc2C(=O)c2c1cc(O)c(O)c2O | inactive |
| CC1=C(C)CC(C(=O)Nc2ccc(N3C(=O)c4ccccc4C3=O)cc2)C(C(=O)O)C1 (centres undefined) | > 100 µM (inactive) |
| O=[N+]([O-])c1c(Cl)cccc1-c1c[nH]cc1Cl | > 100 µM (inactive) |
| Cc1ccccc1-n1c(O)c(C=C2C=CC=N2)c(=O)[nH]c1=S | 8 µM |
| Cc1sc(NC(=O)c2ccc3c(c2)OCO3)c(C(N)=O)c1C | 4 µM |
| Cc1ccc(-c2n[nH]c(=S)n2/N=C/c2ccc(O)c(O)c2O)cc1 | inactive |
| O=C1NN(c2ccc(I)cc2)C(=O)/C1=C\c1ccc(O)c(O)c1 | 3.5 µM |
| CN1CC(O)C2=CC(=O)C(=O)C=C21 (centres undefined) | > 100 µM (inactive) |
| O=C1NC(=S)N(c2ccc(Cl)cc2)C(=O)/C1=C/c1ccc(Br)o1 | 1.7 µM |
| Cc1cc(Br)ccc1N1C(=O)/C(=C/c2ccco2)C(=O)NC1=S | 0.2 µM |
| COc1cc(C)cc2c(-c3c(O)cc(O)c4c3C[C@@H](C)N[C@@H]4C)cc(-c3cc(-c4c(O)cc(O)c5c4C[C@@H](C)N[C@@H]5C)c4cc(C)cc(OC)c4c3O)c(O)c12 | 1.2 µM |
| O=C(Oc1ccccc1)Oc1c(Cl)cc2oc(=O)sc2c1Cl | 7.8 µM |
| O=C(O)/C=C/c1c2ccc(=O)c(O)c-2oc2c(O)c(O)ccc12 | 2 µM |
| CCCCCCCCCCCCCCCCCCOCC(O)CO (centres undefined) | > 100 µM (inactive) |
| O=c1[nH]c(=S)n(-c2ccccc2F)c(O)c1C=C1C=CC=N1 | 0.8 µM |
| O=c1oc2ccccc2c(O)c1/C=C1\C=Nc2ccccc21 | inactive |
| COc1ccc(/C=C\C(=O)c2c(-c3ccccc3)c3cc(C)ccc3[nH]c2=O)c(OC)c1 | 9 µM |

| SMILES | IC50 |
| --- | --- |
| Cc1sc(NC(=O)Cc2ccccc2)c(C(N)=O)c1C | inactive |
| C=C/C(C)=C/C[C@]1(C)[C@H](C)CC[C@@]23C(=C[C@H](OC(=O)c4ccc(O)c(OC)c4)C[C@@H]12)[C@@H](OC(C)=O)O[C@H]3OC(C)=O | inactive |
| Nc1ccc(N=Nc2ccc(-c3ccc(O)cc3)cc2)c2ccc(S(=O)(=O)O)cc12 | inactive |
| Cc1ccc(N2C(=O)/C(=C/c3ccc(O)c(O)c3)SC2=S)cc1C | 2 µM |
| O=C1NC(=S)N(c2ccc(Cl)cc2)C(=O)/C1=C/c1ccco1 | inactive |
| Cc1sc2nc(-c3ccc([N+](=O)[O-])cc3)[nH]c(=O)c2c1C | 1.6 µM |
| Cc1c(Cl)ccc2c1NC(C(=O)O)C1CC=CC21 (centres undefined) | 6.8 µM |
| O=C1NC(=S)S/C1=C/c1cccc(OCc2ccc(Cl)c(Cl)c2)c1 | 4.4 µM |
| C=Cc1c(C)c2cc3[nH]c(cc4nc(cc5nc(cc1[nH]2)C(C)=C5CCC(=O)O)C(CCC(=O)O)=C4C)c(C)c3C=C | inactive |
| O=C1C=CC(=O)C(c2cccc(Cl)c2)=C1 | 8.8 µM |
| COc1ccc2c(c1)N(C(=O)CN1C(=O)c3ccccc3C1=O)C(C)(C)c1ssc(=S)c1-2 | inactive |
| CC(=O)/C=C/C=C/c1ccc2c(c1)OC(CO)C(c1ccc(O)c(O)c1)O2 (centres undefined) | inactive |
| CCCc1cc(=O)oc2c3c(c4c(c12)OC(C)(C)C=C4)O[C@@H](C)[C@H](C)[C@@H]3F | 7 µM |
| O=C(O)C1CCCCC1c1c2ccc(=O)c(O)c-2oc2c(O)c(O)ccc12 (centres undefined) | 2 µM |
| O=C1Nc2ccc(I)cc2C1(O)N1CCOCC1 (centres undefined) | 0.8 µM |
| C[C@@H]1Oc2c3c(c4c(-c5ccccc5)cc(=O)oc4c2C(=O)[C@H]1C)OC(C)(C)C=C3 | 4.2 µM |
| COc1ccc(-c2c(C#N)c(N)nc(SCC(=O)c3ccc(O)c(O)c3)c2C#N)cc1 | 0.6 µM |
| CC(=O)C1=C(O)[C@@]2(O)C(=O)c3c(c(C)c4ccc(C)c(O)c4c3O)C[C@H]2[C@@H](N)C1=O | 9 µM |
| O=C1/C(=C\c2ccc(O)c(O)c2)SC(=S)N1c1cccc(Cl)c1 | 2.9 µM |
| NC(=O)c1c(NC(=O)CCc2ccccc2)sc2c1CCCCCC2 | 2 µM |
| Oc1cc(O)c2cc(O)c(-c3ccc(O)c(O)c3)[o+]c2c1 | 0.4 µM |
| CN(C)CN1CSC(=S)N(CN(C)C)C1 | inactive |
| CC(C)c1cccc(O)c(=O)c1 | > 100 µM (inactive) |
| C=CC(C)(C)C12CC3C(=O)N/C(=C\c4cnc[nH]4)C(=O)N3C1Nc1ccccc12 (centres undefined) | > 100 µM (inactive) |
